According to ChEMBL document CHEMBL1148126, “Triterpenoid constituents of Raulinoa echinata” (J Nat Prod, 2002):
≈ marks a conversion by molar mass, not a printed value.

Experiments:
Trypanosoma cruzi = assay: Antitrypanosomal activity against Trypanosoma cruzi Y trypomastigotes; assay type: functional, organism-based
[1] = Toxicity in Artemia salina; assay type: organism-based; conditions: in vivo, read-out: LD50 (the source's name)

In the case of `CN(C)c1ccc(C(=C2C=CC(=[N+](C)C)C=C2)c2ccc(N(C)C)cc2)cc1.[Cl-]` [GENTIAN VIOLET], the IC50 (Trypanosoma cruzi) is reported as 7.5 µg/mL.
With `CNc1ccccc1C(=O)O[C@H]1CC[C@]2(C)[C@H]3CC[C@]45C[C@]4(CC[C@H]5[C@@H]4C[C@H]([C@H](O)C(C)(C)O)O[C@H]4OC)[C@]3(C)[C@H](O)C[C@H]2C1(C)C` the IC50 (Trypanosoma cruzi) was > 1000 µg/mL and the LC50 [1] was > 100 µg/mL.
With `CO[C@H]1O[C@@H]([C@H](O)C(C)(C)OC)C[C@H]1[C@@H]1CC[C@]2(C)C3=CC[C@H]4C(C)(C)C(=O)CC[C@]4(C)[C@H]3CC[C@@]12C` the IC50 (Trypanosoma cruzi) was 114 µg/mL (≈ 222 µM) and the LC50 [1] was > 100 µg/mL.
In the case of `CO[C@@H]1O[C@@H]([C@H](O)C(C)(C)OC)C[C@H]1[C@@H]1CC[C@]2(C)C3=CC[C@H]4C(C)(C)C(=O)CC[C@]4(C)[C@H]3CC[C@@]12C`, the IC50 (Trypanosoma cruzi) is reported as 135 µg/mL (≈ 261 µM) and the LC50 [1] is reported as > 100 µg/mL.
In the case of `CNc1ccccc1C(=O)O[C@H]1CC[C@]2(C)[C@H]3CC[C@]45C[C@]4(CC[C@H]5[C@@H]4C[C@H]([C@H](O)C(C)(C)O)O[C@@H]4OC)[C@]3(C)[C@H](O)C[C@H]2C1(C)C`, the IC50 (Trypanosoma cruzi) is reported as > 1000 µg/mL and the LC50 [1] is reported as > 100 µg/mL.
For `CNc1ccccc1C(=O)O[C@H]1CC[C@]2(C)[C@H]3CC[C@]45C[C@]4(CC[C@H]5[C@@H]4C[C@H]([C@H](O)C(C)(C)O)OC4O)[C@]3(C)[C@H](O)C[C@H]2C1(C)C` (stereo partly specified), the IC50 (Trypanosoma cruzi) was > 1000 µg/mL and the LC50 [1] was > 100 µg/mL.
